Data published in patent US6764996B1, “9a-azalides with antibacterial activity” (Abbott Laboratories, priority 1999, dated 2004).

Key:
Test in all cases: In vitro antibacterial activity, agar dilution MIC
Type in all cases: cell-based
[1] = test system: Streptococcus Pneumonia 5979; settings: code ZZ: Streptococcus Pneumonia 5979; BHI agar, 35-37° C., 20 to 24 hours; unit assumed
Description: (§1) Representative compounds of the present invention were assayed in vitro for antibacterial activity as follows: Twelve petri dishes containing successive aqueous dilutions of the test compound mixed with 10 mL of sterilized Brain Heart Infusion (BHI) agar (Difco 0418-01-5) were prepared. Each plate was inoculated with 1:100 (or 1:10 for slow-growing strains, such as Micrococcus and Streptococcus) dilutions of up to 32 different microorganisms, using a Steers replicator block. The inoculated plates were incubated at 35-37° C. for 20 to 24 hours. In addition, a control plate, using BHI agar containing no test compound, was prepared and incubated at the beginning and end of each test.
(§2) An additional plate containing a compound having known susceptibility patterns for the organisms being tested and belonging to the same antibiotic class as the test compound was also prepared and incubated as a further control, as well as to provide test-to-test comparability.
(§3) After incubation, each plate was visually inspected. The minimum inhibitory concentration (MIC) was defined as the lowest concentration of drug yielding no growth, a slight haze, or sparsely isolated colonies on the inoculum spot as compared to the growth control.

[2] = test system: Streptococcus Pneumonia GYR 1171; settings: code YY: Streptococcus Pneumonia GYR 1171; BHI agar, 35-37° C., 20 to 24 hours; unit assumed
Description: as §1
as §2, with “comparability. Erythromycin A was used for this purpose.” for “comparability.”
as §3

[3] = test system: Streptococcus Pneumonia ATCC 6303; settings: code XX: Streptococcus Pneumonia ATCC 6303; BHI agar, 35-37° C., 20 to 24 hours; unit assumed
Description: as §1
as §2, with “comparability. Erythromycin A was used for this purpose.” for “comparability.”
as §3

[4] = test system: Staphylococcus aureus A-5177; settings: code BB: Staphylococcus aureus A-5177; BHI agar, 35-37° C., 20 to 24 hours; unit assumed
Description: as §1
as §2, with “comparability. Erythromycin A was used for this purpose.” for “comparability.”
as §3

[5] = test system: Haemophilislnfluenzae DILL AMP R; settings: code WW: Haemophilislnfluenzae DILL AMP R; BHI agar, 35-37° C., 20 to 24 hours; unit assumed
Description: as §1
as §2, with “comparability. Erythromycin A was used for this purpose.” for “comparability.”
as §3

[6] = test system: Streptococcus pyogenes PIU 2548; settings: code NN: Streptococcus pyogenes PIU 2548; BHI agar, 35-37° C., 20 to 24 hours; unit assumed
Description: as §1
as §2, with “comparability. Erythromycin A was used for this purpose.” for “comparability.”
as §3

[7] = test system: Staphylococcus aureus NCTC 10649M; settings: code EE: Staphylococcus aureus NCTC 10649M; BHI agar, 35-37° C., 20 to 24 hours; unit assumed
Description: as §1
as §2, with “comparability. Erythromycin A was used for this purpose.” for “comparability.”
as §3

[8] = test system: Streptococcus Pneumonia 5649; settings: code ZA: Streptococcus Pneumonia 5649; BHI agar, 35-37° C., 20 to 24 hours; unit assumed
Description: as §1
as §2, with “comparability. Erythromycin A was used for this purpose.” for “comparability.”
as §3

Escherichiacoli JUHL = settings: code QQ: Escherichiacoli JUHL; BHI agar, 35-37° C., 20 to 24 hours; unit assumed
Description: as §1
as §2, with “comparability. Erythromycin A was used for this purpose.” for “comparability.”
as §3

[9] = test system: Streptococcus agalactiae CMX 508; settings: code KK: Streptococcus agalactiae CMX 508; BHI agar, 35-37° C., 20 to 24 hours; unit assumed
Description: as §1
as §2, with “comparability. Erythromycin A was used for this purpose.” for “comparability.”
as §3

Escherichiacoli SS = settings: code RR: Escherichiacoli SS; BHI agar, 35-37° C., 20 to 24 hours; unit assumed
Description: as §1
as §2, with “comparability. Erythromycin A was used for this purpose.” for “comparability.”
as §3

[10] = test system: Nocardia Asteroides ATCC 99700; settings: code VV: Nocardia Asteroides ATCC 99700; BHI agar, 35-37° C., 20 to 24 hours; unit assumed
Description: as §1
as §2, with “comparability. Erythromycin A was used for this purpose.” for “comparability.”
as §3

[11] = test system: Staphylococcus aureus A-5278; settings: code CC: Staphylococcus aureus A-5278; BHI agar, 35-37° C., 20 to 24 hours; unit assumed
Description: as §1
as §2, with “comparability. Erythromycin A was used for this purpose.” for “comparability.”
as §3

[12] = test system: Staphylococcus aureus ATCC 6538P; settings: code AA: Staphylococcus aureus ATCC 6538P; BHI agar, 35-37° C., 20 to 24 hours; unit assumed
Description: as §1
as §2, with “comparability. Erythromycin A was used for this purpose.” for “comparability.”
as §3

[13] = test system: Streptococcus pyogenes 930; settings: code MM: Streptococcus pyogenes 930; BHI agar, 35-37° C., 20 to 24 hours; unit assumed
Description: as §1
as §2, with “comparability. Erythromycin A was used for this purpose.” for “comparability.”
as §3

[14] = test system: Streptococcus pyogenes EES61; settings: code LL: Streptococcus pyogenes EES61; BHI agar, 35-37° C., 20 to 24 hours; unit assumed
Description: as §1
as §2, with “comparability. Erythromycin A was used for this purpose.” for “comparability.”
as §3

Candida albicans CCH 442 = settings: code TT: Candida albicans CCH 442; BHI agar, 35-37° C., 20 to 24 hours; unit assumed
Description: as §1
as §2, with “comparability. Erythromycin A was used for this purpose.” for “comparability.”
as §3

[15] = test system: Micrococcusluteus ATCC 4698; settings: code PP: Micrococcusluteus ATCC 4698; BHI agar, 35-37° C., 20 to 24 hours; unit assumed
Description: as §1
as §2, with “comparability. Erythromycin A was used for this purpose.” for “comparability.”
as §3

[16] = test system: Staphylococcus aureus 1775; settings: code GG: Staphylococcus aureus 1775; BHI agar, 35-37° C., 20 to 24 hours; unit assumed
Description: as §1
as §2, with “comparability. Erythromycin A was used for this purpose.” for “comparability.”
as §3

[17] = test system: Mycobacterium smegmatis ATCC 114; settings: code UU: Mycobacterium smegmatis ATCC 114; BHI agar, 35-37° C., 20 to 24 hours; unit assumed
Description: as §1
as §2, with “comparability. Erythromycin A was used for this purpose.” for “comparability.”
as §3

[18] = test system: Streptococcus bovis A-5169; settings: code JJ: Streptococcus bovis A-5169; BHI agar, 35-37° C., 20 to 24 hours; unit assumed
Description: as §1
as §2, with “comparability. Erythromycin A was used for this purpose.” for “comparability.”
as §3

[19] = test system: Staphylococcus epidermidis 3519; settings: code HH: Staphylococcus epidermidis 3519; BHI agar, 35-37° C., 20 to 24 hours; unit assumed
Description: as §1
as §2, with “comparability. Erythromycin A was used for this purpose.” for “comparability.”
as §3

SMILES | Antibacterial Activity (MIC) [2] [µg/mL] | Antibacterial Activity (MIC) [3] [µg/mL] | Antibacterial Activity (MIC) [4] [µg/mL] | Antibacterial Activity (MIC) [5] [µg/mL] | Antibacterial Activity (MIC) [6] [µg/mL] | Antibacterial Activity (MIC) [7] [µg/mL] | Antibacterial Activity (MIC) [8] [µg/mL] | Antibacterial Activity (MIC) (Escherichiacoli JUHL) [µg/mL] | Antibacterial Activity (MIC) [9] [µg/mL] | Antibacterial Activity (MIC) (Escherichiacoli SS) [µg/mL] | Antibacterial Activity (MIC) [10] [µg/mL] | Antibacterial Activity (MIC) [11] [µg/mL] | Antibacterial Activity (MIC) [12] [µg/mL] | Antibacterial Activity (MIC) [13] [µg/mL] | Antibacterial Activity (MIC) [14] [µg/mL] | Antibacterial Activity (MIC) (Candida albicans CCH 442) [µg/mL] | Antibacterial Activity (MIC) [15] [µg/mL] | Antibacterial Activity (MIC) [16] [µg/mL] | Antibacterial Activity (MIC) [17] [µg/mL] | Antibacterial Activity (MIC) [18] [µg/mL] | further results
CCC1OC(=O)C(C)C(=O)C(C)C(OC2OC(C)CC(N(C)C)C2O)C(C)(OCC=Cc2cnc3ccccc3c2)CC(C)CN(C)C(C)C2OC(=O)OC12C (stereo not shown) [Example 6, Compound of formula (II): R^1 is —CH2CH═CH-(3-quinolinyl), R^2 and R^3 together are oxo, R^4 and R^5 together are —C(O)—, R^6 is methyl, R^8 is hydrogen] | 0.03 | 0.06 | 12.5 | 4 | 6.2 | 0.39 | 8 | 50 | 0.05 | 0.78 | 0.1 | > 100 | 0.2 | > 100 | 0.05 | > 100 | 0.39 | > 100 | 6.2 | 0.02 | Antibacterial Activity (MIC) [1]: > 128 µg/mL; Antibacterial Activity (MIC) [19]: 0.2 µg/mL
C=CCOC1(C)CC(C)CNC(C)C(O)C(C)(O)C(CC)OC(=O)C(C)C(OC2CC(C)(OC)C(O)C(C)O2)C(C)C1OC1OC(C)CC(N(C)C)C1O (stereo not shown) [Example 2, Compound of formula (I): R^1 is —CH2CH═CH2, R^4 is hydrogen, R^5 is hydrogen, R^6 is hydrogen, R^7 is hydrogen, R^8 is hydrogen] | 0.06 | 0.06 | 12.5 | 8 | 6.2 | 0.39 | 16 | 50 | 0.05 | 0.78 | 0.1 | > 100 | 0.2 | > 100 | 0.05 | > 100 | 0.39 | > 100 | 6.2 | 0.02 | Antibacterial Activity (MIC) [1]: > 128 µg/mL; Antibacterial Activity (MIC) [19]: 0.2 µg/mL
CCC1OC(=O)C(C)C(=O)C(C)C(OC2OC(C)CC(N(C)C)C2O)C(C)(OCC=Cc2cnc3ccccc3c2)CC(C)CN(C)C(C)C(O)C1(C)O (stereo not shown) [Example 5, Compound of formula (II): R^1 is —CH2CH═CH-(3-quinolinyl), R^2 and R^3 together are oxo, R^4 is hydrogen, R^5 is hydrogen, R^6 is methyl, R^8 is hydrogen] | 0.03 | 0.06 | 12.5 | 4 | 6.2 | 0.39 | 8 | 50 | 0.05 | 0.78 | 0.1 | > 100 | 0.2 | > 100 | 0.05 | > 100 | 0.39 | > 100 | 6.2 | 0.02 | Antibacterial Activity (MIC) [1]: > 128 µg/mL; Antibacterial Activity (MIC) [19]: 0.2 µg/mL
CC[C@H]1OC(=O)[C@H](C)[C@@H](O[C@H]2C[C@@](C)(OC)[C@@H](O)[C@H](C)O2)[C@H](C)[C@@H](O[C@@H]2O[C@H](C)C[C@H](N(C)C)[C@H]2O)[C@](C)(O)C[C@@H](C)C(=O)[C@H](C)[C@@H](O)[C@]1(C)O [Ery. A, Erythromycin A, reference compound] | 0.06 | 0.06 | 3.1 | 4 | 6.2 | 0.39 | 16 | > 100 | 0.05 | 0.78 | 0.1 | > 100 | 0.2 | > 100 | 0.05 | > 100 | 0.2 | > 100 | 3.1 | 0.02 | Antibacterial Activity (MIC) [19]: 0.39 µg/mL
CCC1OC(=O)C(C)C(OC2CC(C)(OC)C(O)C(C)O2)C(C)C(OC2OC(C)CC(N(C)C)C2O)C(C)(OCC=Cc2cnc3ccccc3c2)CC(C)CN(C)C(C)C(O)C1(C)O (stereo not shown) [Example 7, Compound of formula (I): R^1 is —CH2CH═CH-(3-quinolinyl), R^4 is hydrogen, R^5 is hydrogen, R^6 is methyl, R^7 is hydrogen, R^8 is hydrogen] | 0.12 | 0.12 | 3.1 | 8 | 6.2 | 0.39 | 16 | 100 | 0.1 | 0.39 | 0.05 | > 100 | 0.1 | > 100 | 0.05 | > 100 | 0.2 | > 100 | 6.2 | 0.1 | Antibacterial Activity (MIC) [1]: > 128 µg/mL; Antibacterial Activity (MIC) [19]: 0.2 µg/mL
